Measurements: patent US7452869B2, “NIP3 family of proteins” (University of Manitoba, priority 2000, dated 2008)

What was measured:
BNIP3 = biological target: T1, BNIP3 (Homo sapiens, UniProt Q12983); assay: BNIP3 induced cell death by exclusion of propidium iodide, co-transfection of BNIP3 DTM plasmid (FIG. 13); type: cell-based; settings: 1.0 to 1.0 μg plasmid ratio BNIP3 DTM to BNIP3
T1 construct: a pcDNA3-BNIP3 plasmid encoding the full length of BNIP3; expressed in transfected cells
Procedure: Increasing concentrations of BNIP3 DTM plasmid (0.25 to 1.0 μg) were added to a constant amount of BNIP3 (1.0 μg). Cell death was determined by exclusion of propidium iodide. […] The BNIP3 DTM mutant contains amino acids 1-163, which is a deletion of the C-terminus of the protein that contains the transmembrane domain.

PT pore = assay: mitochondrial Dcm (DiOC6), ROS production (HE) and PI staining by flow cytometry in BNIP3-transfected 293T cells; type: cell-based; settings: 293T cells
Procedure: Changes in mitochondrial function were determined by incubating 10 6 293T cells, transiently transfected via the CaP04 method, with either 1 mM JC-1, 40 nM DiOC6, or 2 mM dihydroethidium (HE) (all from Molecular Probes, Inc.) for 30 minutes at 37° C. in Hanks' balanced salt solution (Gibco-BRL). Cells were scored using a FACScalibur flow cytometer (Becton-Dickinson, San Jose, Calif.), and data were analyzed on Celiquest software, version 3.1 (Becton-Dickinson). Controls were performed in the presence or absence of […] mClCCP (Sigma) or an excess of 30% H2 02. For inhibition experiments, cyclosporin A (Sigma) or bongkrekic acid (a gift from J. A. Duine, Delft University, Delft, The Netherlands) was added 2 hours prior to transfection. All cells were harvested 8 hours after transfection and stained with 40 nM DiOC6, 2 mM HE, or 1 mg of propidium iodide (PI) (Sigma) per ml. In all cases, samples were gated to exclude cellular debris.

caspase 3-like proteases = assay: caspase activation, colorigenic cleavage of Ac-DEVD-pNA by lysates of transfected 293T cells; type: biochemical; settings: 293T lysates harvested 1 to 36 hours posttransfection, versus untransfected controls
Procedure: Lysates were collected from 293T cells, transiently transfected via the CaP04 method (Ray, R., et al., 1999), at the indicated times. Aliquots of these lysates were run under Laemmli sodium dodecyl sulfate-polyacrylamide gel electrophoresis (SDS-PAGE) conditions and immunoblotted with mouse monoclonal anti-PARP. Results were visualized with an enhanced chemiluminescence system (Amersham Pharmacia Biotech, Amersham, U. K.). Transfected 293T cells were also assayed for caspase cleavage via colorigenic cleavage of the peptide Ac-DEVD-pNA (Biomol, Plymouth Meeting, Pa.), according to the conditions outlined by Quignon et al. (Scaffidi, C., et al., 1998), using 100 mM peptide. Where appropriate, samples were preincubated with 500 nM Ac-DEVD-fmk for 30 minutes at room temperature. Data were acquired on a Multiskan MCC/340 (Titertek) plate reader at 405 nm.

ventricular myocytes = assay: cell viability of ventricular myocytes, calcein acetoxymethyl ester / ethidium homodimer-1; type: cell-based; settings: cells expressing BNIP3ΔTM
Procedure: Ventricular myocytes were isolated from 1- to 2-day-old Sprague-Dawley rats (University of Manitoba, Winnipeg, Canada) and submitted to primary culture as reported (Kirshenbaum and Schneider, 1995). Myocytes were subjected to hypoxia for 24 hours in an air-tight chamber continually gassed with 95% N2-5% CO2, as previously reported (Moissac et al., 2000; Long et al., 1997; Tanaka et al., 1994). Adult rat hearts (n=3) were excised from adult rats (250 to 300 g) and subjected to global hypoxia for 1 hour on a modified Langendorff perfusion system with buffer continually gassed with 95% N2-5% CO2, as previously reported (Kirshenbaum, 1993). Heart failure was induced in rats by surgical ligation of the left anterior descending coronary artery, as previously reported (Dixon et al., 1992). Non-failing sham control hearts and those with heart failure were excised from animals 8 weeks after myocardial infarction. Hearts (n=3) were dissected to remove the infarcted scar tissue, and the left ventricular free wall was homogenized and analyzed by Western blot for BNIP3 expression. Animals were handled according to guidelines established by the University of Manitoba and Canadian Council on Animal Care.
The cDNAs for BNIP3 full-length (BNIP3) and carboxyl terminal transmembrane domain deletion mutant (BNIP3ΔTM) have been described previously (Vande et al., 2000). Recombinant adenoviruses encoding the full-length BNIP3 or transmembrane deletion mutant are designated AdBNIP3 or AdBNIP3ΔTM, respectively, and generated as reported previously (Kirshenbaum et al., 1993).
Cell viability was determined using the vital dyes 2 μmol/L calcein acetoxymethyl ester (green) to determine the number of living cells and 2 μmol/L ethidium homodimer-1 (red) (Molecular Probes) to identify the number of dead cells (Kirshenbaum and Schneider, 1995). The number of green cells versus red cells was used to determine changes in cell viability (Moissac et al., 2000). Cells were analyzed from at least n=3 independent myocyte isolations counting ≧200 cells for each condition tested. Data are expressed as mean±SE percent reduction from control.

293T cells = assay: cytochrome c release by indirect immunofluorescence, 293T; type: cell-based
Procedure: (§1) Mitochondria were isolated from CaP04-transfected 293T cells using 70 strokes (tight pestle) in a 1-ml Dounce homogenizer (Wheaton) in […] of CFS buffer as previously described (Thornberry, N. A., et al., 1998). Mitochondria were resuspended in H buffer (Thornberry, N. A., et al., 1998). Aliquots of […] of protein were analyzed on Laemmli SDS-15% PAGE gels and immunoblotted with anticytochrome c monoclonal antibody. Equal loading was ensured by probing the same blot with monoclonal antiactin. Results were visualized with enhanced chemiluminescence. Cytochrome c release was also determined via indirect immunofluorescence of transfected MCF-7 and 293T cells. Briefly, cells grown on coverslips were costained with Cy3-conjugated mouse anti-cytochrome c monoclonal antibody and an appropriate tag (HA for BNIP3 and FLAG for tBID), which was visualized with FITC-conjugated goat anti-rabbit IgG. Cells were also stained with Hoechst dye to determine apoptotic nuclear morphology. No fewer than 200 cells were scored for each sample. Fluorescence was visualized and captured using a Zeiss axiophot microscope equipped with a cooled charge-coupled device camera.

MCF-7 cells = assay: cytochrome c release by indirect immunofluorescence, MCF-7; type: cell-based
Procedure: as §1

endogenous BNIP3 = biological target: T2, endogenous BNIP3 (Rattus norvegicus, UniProt A0ACM8Q210); assay: alkali extraction of mitochondria of hypoxic ventricular myocytes, BNIP3 western blot; type: cell-based
T2 construct: endogenous in cells; host or cells: neonatal rat ventricular myocytes, with or without adenovirus AdBNIP3ΔTM
T2 sequence (A0ACM8Q210 1-187): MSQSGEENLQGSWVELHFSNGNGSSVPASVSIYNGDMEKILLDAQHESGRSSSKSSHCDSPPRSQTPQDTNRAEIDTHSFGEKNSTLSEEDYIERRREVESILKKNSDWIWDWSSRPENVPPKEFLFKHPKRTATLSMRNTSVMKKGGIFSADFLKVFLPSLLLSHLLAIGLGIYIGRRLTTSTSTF
Source text: For detection of BNIP3 protein, total cardiac cell lysate was subjected to Western blot analysis using a murine antibody directed toward BNIP3 (Vande et al., 2000). To isolate mitochondria from ventricular myocytes, cells were washed in HIM buffer (200 mmol/L mannitol, 70 mmol/L sucrose, 10 mmol/L HEPES-KOH, 1 mmol/L EGTA, pH 7.5). The crude cell pellet was disrupted and resuspended in HIM buffer containing 2.0% wt/vol bovine serum albumin. The homogenate was ultracentrifuged to obtain the mitochondrial fraction and resuspended in 200 mmol/L sucrose, 10 mmol/L HEPES-KOH, 1 mmol/L ATP, 5 mmol/L sodium succinate, 0.08 mmol/L ADP, and 2 mmol/L K2HPO4. To assess whether BNIP3 integrates into mitochondrial membranes during hypoxia, mitochondria were subjected to alkali extraction using 0.01 mol/L Na2CO3 (pH 11.5); this will dissociate and solubilize proteins that are not membrane integrated (Vande et al, 2000; Goping et al, 1998). Antibodies directed toward the following Bcl-2 family members were obtained from respective suppliers: Bad (Transduction Laboratories Inc), Bax (Santa Cruz Inc), and Bak and Bcl-2 (Pharmingen). Bound proteins were visualized using enhanced chemiluminescence (ECL) reagents (Amersham Pharmacia Inc).

[1] = tested on: primary hippocampal neurons; assay: primary hippocampal neurons transfected with BNIP3 plasmids, DNA condensation and survival; type: cell-based, rat; settings: for BNIP3-positive neurons showing DNA condensation / DNA damage: transiently transfected hippocampal neurons
Procedure: Transfection of cells was performed on day four in culture with LipofectAMINE 2000 […] according to manufacturer's protocol. Cells were transfected with a pcDNA3-BNIP3 plasmid encoding the full length of BNIP3 and a pcDNA3-BNIP3-163 plasmid that encodes a truncated form (the first 163 amino acids) of BNIP3 that lacks the functional transmembrane domain. Cells were used after 9 days in culture for excitotoxicity experiments. Neuronal cell death was assessed using trypan blue exclusion, morphological changes, and Hoescht 33342 staining. Morphological characteristics were examined on a Nikon Eclipse TE200 microscope and fluorescence was examined on a Zeiss Axioskop 2.
In vitro cell death was estimated using trypan blue exclusion. Cells were incubated in 0.4% trypan blue solution for 30 minutes and then counted on a bright-field microscope. Nonviable cells were distinguished by their dark blue staining. To examine nuclear morphology, nuclear DNA was stained with Hoescht 33342. DNA fragmentation was detected by TUNEL using an in situ cell death detection kit with fluorescein. Statistical analyses were by ANOVA with Tukey's post-test.

T1 sequence (Q12983 whole entry): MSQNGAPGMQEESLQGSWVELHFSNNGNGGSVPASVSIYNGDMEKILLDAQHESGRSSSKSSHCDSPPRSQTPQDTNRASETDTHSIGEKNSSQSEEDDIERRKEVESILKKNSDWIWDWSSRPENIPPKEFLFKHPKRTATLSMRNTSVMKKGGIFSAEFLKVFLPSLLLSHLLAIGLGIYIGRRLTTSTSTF

## BNIP3ΔTM: carboxyl terminal transmembrane deletion mutant of BNIP3, deletion of amino acids 164 to 194 (amino acids 1-163)
BNIP3
  cell death induced by BNIP3 (propidium iodide exclusion): background levels
PT pore
  DiOC6 / HE staining compared to untreated controls: not affected
Caspase 3-like proteases
  increase in Ac-DEVD-pNA substrate cleavage after transfection: only marginal increases
Ventricular myocytes
  toxicity to myocytes (viability versus control cells): not toxic
Ventricular myocytes; hypoxia 24 hours
  hypoxia-induced cell death of ventricular myocytes: markedly blunted
293T cells
  cytochrome c release (in words): only very low levels
MCF-7 cells
  cytochrome c release (in words): no significant cytochrome c release
Endogenous BNIP3
  hypoxia-induced mitochondrial integration of the endogenous BNIP3 protein: suppressed
[1]; glutamate 100 μM at day 9 in culture, 5 days after transfection
  neurons surviving glutamate toxicity: 68%
[1]; listed as BNIP^3-163
  BNIP3-positive neurons showing DNA condensation / DNA damage: 17%
[1]; listed as pcDNA3-BNIP3^3-163
  BNIP3-positive neurons showing DNA condensation / DNA damage: 24%
